Source: PubChem BioAssay (NCI)
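Growth conditions: 96-well plates. Treatment: test compound, 48 hours, 5 concentrations. Analysis: linear interpolation between bracketing concentrations; unreached endpoints set to highest concentration. GI50: concentration for 50% inhibition of growth. TGI: concentration producing complete growth inhibition.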

Experiments:
Experiment in all cases: growth of human tumour cells (NCI), 48 h
CCRF-CEM leukemia = tested on: CCRF-CEM leukemia
HT29 colon = tested on: HT29 colon
SNB-19 CNS = tested on: SNB-19 CNS
OVCAR-3 ovarian = tested on: OVCAR-3 ovarian
NCI-H23 lung = tested on: NCI-H23 lung
BT-549 breast = tested on: BT-549 breast
A549 NSCLC = tested on: A549 NSCLC
SF-268 CNS = tested on: SF-268 CNS
K-562 leukemia = tested on: K-562 leukemia
NCI/ADR-RES ovarian = tested on: NCI/ADR-RES ovarian

SMILES	TGI (CCRF-CEM leukemia) [µM]	TGI (HT29 colon) [µM]	TGI (SNB-19 CNS) [µM]	TGI (OVCAR-3 ovarian) [µM]	TGI (NCI-H23 lung) [µM]	TGI (BT-549 breast) [µM]	TGI (A549 NSCLC) [µM]	TGI (SF-268 CNS) [µM]	TGI (K-562 leukemia) [µM]	TGI (NCI/ADR-RES ovarian) [µM]	GI50 (CCRF-CEM leukemia) [µM]	GI50 (HT29 colon) [µM]	GI50 (SNB-19 CNS) [µM]	GI50 (OVCAR-3 ovarian) [µM]	GI50 (NCI-H23 lung) [µM]	GI50 (BT-549 breast) [µM]	GI50 (A549 NSCLC) [µM]	GI50 (SF-268 CNS) [µM]	GI50 (K-562 leukemia) [µM]	GI50 (NCI/ADR-RES ovarian) [µM]
Cc1nc(C)c(N2CCN(CN)CC2)c(=O)[nH]1	> 100	> 100	> 100	> 100	> 100	> 100	> 100	> 100	> 100	> 100	–	–	–	–	–	–	–	–	–	–
O=C1N2CCC[C@H]2CS1(=O)=O	7.1	75.1	> 100	31.4	34	30.2	47.3	42.7	32.1	> 100	–	–	–	–	–	–	–	–	–	–
CC(c1ccccc1)n1cncc1C(=O)NN1CCN(C)CC1 (stereo not given)	> 10	> 10	> 10	> 10	> 10	> 10	> 10	> 10	> 10	> 10	–	–	–	–	–	–	–	–	–	–
CCOC(=O)c1c(N2CCCC2)[nH]c(=O)c(C(c2ccc(N(C)C)cc2)c2c(O)c(C(=O)OCC)c(N3CCCC3)[nH]c2=O)c1O	> 100	> 100	> 100	> 100	> 100	> 100	> 100	> 100	> 100	> 100	–	–	–	–	–	–	–	–	–	–
O=c1[nH]n(CCc2ccccc2CCl)c2ccc([N+](=O)[O-])cc12	> 100	> 100	> 100	> 100	> 100	> 100	> 100	> 100	> 100	> 100	–	–	–	–	–	–	–	–	–	–
COc1c(C)c(C/C=C(\C)CCCC(C)CCCC(C)CCCC(C)C)c(OC)c2ccccc12 (stereo not given)	> 100	> 100	> 100	> 100	> 100	> 100	> 100	> 100	> 100	> 100	–	–	–	–	–	–	–	–	–	–
Cn1c2ccc(Cl)cc2c2ccc3c(c21)C(=O)C=CC3=O	> 10	> 10	> 10	> 10	> 10	> 10	> 10	> 10	> 10	> 10	–	–	–	–	–	–	–	–	–	–
CC(OP(=O)(O)O)C(N)C(=O)O (stereo not given)	> 100	> 100	> 100	> 100	> 100	> 100	> 100	> 100	> 100	> 100	–	–	–	–	–	–	–	–	–	–
O=c1[nH]cc(N=Cc2cc(Cl)ccc2O)c(=O)[nH]1	19	> 100	> 100	> 100	> 100	70	> 100	47.3	> 100	53.6	–	–	–	–	–	–	–	–	–	–
COc1ccc(OC)c2c(C)ccnc12	> 29.8	> 100	> 100	26	> 96.1	> 100	97.7	> 97.2	> 100	67.4	–	–	–	–	–	–	–	–	–	–
O=C1C=C(N2CCN(c3ncccn3)CC2)C(=O)c2c(O)ccc(O)c21	> 100	> 100	> 100	> 100	> 100	> 100	> 100	> 100	> 100	> 100	–	–	–	–	–	–	–	–	–	–
Cc1ccc(N=C/C=C(\Nc2ccc(C)cc2)c2ccc3ccccc3c2)cc1	0.558	2.32	15.4	11.2	3.9	13.6	13.2	28.8	2.72	2.16	–	–	–	–	–	–	–	–	–	–
O=c1cc(N2CCOCC2)n2c(ccc3ccccc32)n1	> 100	> 100	> 100	> 100	> 100	> 100	> 100	> 100	> 100	> 100	–	–	–	–	–	–	–	–	–	–
O=C(O)Cn1c2c(c3c1-c1ccccc1C3=O)C(=O)CCC2	> 100	> 100	> 100	> 100	> 100	> 100	> 100	> 100	> 100	> 100	32	> 100	> 100	> 100	> 100	> 100	> 100	> 100	> 100	> 100
CC(C)OP(=O)(OC(C)C)C(C(C)C)N(C)C(N)=NC#N (stereo not given)	> 100	> 100	> 100	> 100	> 100	> 100	> 100	> 100	> 100	> 100	–	–	–	–	–	–	–	–	–	–
CCCC1=C(OC)C(=O)c2c(C)cc(Cl)nc2C1=O	2.77	8.45	34.9	6.54	13.7	26.5	26.9	27.2	–	14.2	–	–	–	–	–	–	–	–	–	–
N/N=C(/N)SCCCCCCCCCCS/C(N)=N/N	> 100	27.7	> 100	91.1	> 100	68.7	50.3	> 100	32.3	58.2	–	–	–	–	–	–	–	–	–	–
COc1cccc(NC(=O)CC(=O)n2nc(-c3ccccc3)c(N=Nc3ccc(Cl)cc3)c2-c2ccccc2)c1	> 39.6	56.7	> 100	99.1	> 78.1	58.6	> 85.7	49.4	> 78	52.6	–	–	–	–	–	–	–	–	–	–
COC(=O)/C=C\n1nc(Br)c(=O)[nH]c1=O	> 100	> 100	> 100	> 100	> 100	> 100	> 100	> 100	> 100	> 100	–	–	–	–	–	–	–	–	–	–
COC(=O)CCC(=O)NC1=C(Nc2ccccc2)C(=O)c2ccccc2C1=O	42.9	35.7	31.4	10.4	12.9	23.4	37	51.5	> 57.6	39.9	–	–	–	–	–	–	–	–	–	–
Cc1c(OCc2cccc3ccccc23)ccc2c(=O)cc(SCCN3CCOCC3)oc12	> 100	> 100	> 100	> 100	> 100	> 100	> 100	> 100	> 100	> 100	–	–	–	–	–	–	–	–	–	–
CCOC(=O)c1cc2c3c(c(C(C)=O)c(OC)c2[nH]1)N(C(=O)CC)CC3	71.4	30.5	26.5	34.4	25	47.1	38.7	36.6	50.5	31	–	–	–	–	–	–	–	–	–	–

SMILES	TGI (CCRF-CEM leukemia) [µM]	TGI (HT29 colon) [µM]	TGI (SNB-19 CNS) [µM]	TGI (OVCAR-3 ovarian) [µM]	TGI (NCI-H23 lung) [µM]	TGI (BT-549 breast) [µM]	TGI (A549 NSCLC) [µM]	TGI (SF-268 CNS) [µM]	TGI (K-562 leukemia) [µM]	TGI (NCI/ADR-RES ovarian) [µM]	GI50 (CCRF-CEM leukemia) [µM]	GI50 (HT29 colon) [µM]	GI50 (SNB-19 CNS) [µM]	GI50 (OVCAR-3 ovarian) [µM]	GI50 (NCI-H23 lung) [µM]	GI50 (BT-549 breast) [µM]	GI50 (A549 NSCLC) [µM]	GI50 (SF-268 CNS) [µM]	GI50 (K-562 leukemia) [µM]	GI50 (NCI/ADR-RES ovarian) [µM]
O=Nc1c(-c2c(O)[nH]c3ccc(I)cc23)[nH]c2ccccc12	5.07	> 21.6	> 62.1	> 57.3	> 100	> 59.3	> 30.4	25.9	–	> 63.4	–	–	–	–	–	–	–	–	–	–
Cc1ccc(-n2nncc2[Si](C)(C)C)s1	56.7	> 100	> 100	> 100	> 100	> 100	> 100	> 100	> 100	> 100	–	–	–	–	–	–	–	–	–	–
Oc1c(Cl)cc2cc1-c1cc(cc(Cl)c1O)CCc1c(cc(Cl)c(O)c1Cl)-c1cc(Cl)c(c(Cl)c1O)/C=C\2	> 50	25.2	26	14.4	33.6	> 50	23.9	23.6	> 50	30.8	–	–	–	–	–	–	–	–	–	–
O=C1Nc2cccc(Cl)c2/C1=C\c1c(-c2ccccc2)nc2n1CCS2	33.1	42.5	66.1	43.5	88.7	76.5	49.1	66.9	55.1	> 100	–	–	–	–	–	–	–	–	–	–
NC1CCCCC1NCCNC1CCCCC1N (stereo not given)	> 100	36	> 100	> 100	96.8	> 100	87.6	> 100	> 100	> 100	–	–	–	–	–	–	–	–	–	–
O=c1[nH]nc(-c2ccccc2)c2[nH]c3c(c12)Cc1ccccc1-3	> 100	> 70	> 100	> 49	> 100	> 100	> 100	> 100	> 100	> 100	–	–	–	–	–	–	–	–	–	–
c1cc2cc3c4c5c(cc6ccc7cc8cc9c%10c8c8c7c6c5c8c5c%10c(c1C9N1CCOCCOCCOCCOCCOCC1)c2c45)C3 (stereo not given)	> 100	> 100	> 100	> 100	> 100	> 100	> 100	> 100	> 100	> 100	–	–	–	–	–	–	–	–	–	–
CC(C)(C)c1cc(OCc2nnc3sc(Cc4ccccc4)nn23)c(Cl)cc1OCc1nnc2sc(Cc3ccccc3)nn12	8.97	57.8	> 100	> 100	> 100	96.9	> 100	> 100	> 100	> 100	–	–	–	–	–	–	–	–	–	–
c1ccc2c(Nc3ncco3)cccc2c1	> 10	> 10	> 10	> 10	> 10	> 10	> 10	> 10	> 10	> 10	–	–	–	–	–	–	–	–	–	–
CC(C)(C)OC(=O)C(C#N)C(=O)c1ccc(C(=O)O)[nH]1 (stereo not given)	> 100	> 100	> 100	> 100	> 100	> 100	> 100	> 100	> 100	38.5	–	–	–	–	–	–	–	–	–	–
COc1cccc2c1OC1c3ccccc3OCC1(O)C2 (stereo not given)	> 100	> 100	–	> 100	> 100	> 100	> 100	> 100	> 100	> 100	–	–	–	–	–	–	–	–	–	–
O=C1C=CC2(O[C@H](C3CCCCC3)[C@@H](C3CCCCC3)O2)C(SC(=O)c2ccccc2)C1 (stereo not given in full)	5.87	3.85	6.56	2.04	8.93	8.28	45.8	5.89	4.73	13.1	–	–	–	–	–	–	–	–	–	–
CC(=O)OCC1OC(SC2=NC(=O)CS2)C(OC(C)=O)C(OC(C)=O)C1OC(C)=O (stereo not given)	> 100	> 100	> 100	> 100	> 100	> 100	> 100	> 100	> 100	> 100	–	–	–	–	–	–	–	–	–	–
Cc1nc2ccc(Cl)cc2c2c1CCO2	> 100	> 100	> 100	> 100	> 100	> 100	> 100	> 100	> 100	> 100	–	–	–	–	–	–	–	–	–	–
COc1ccc(-n2c(N)c(C#N)c(C#N)c2-c2ccco2)cc1	> 100	> 100	> 100	> 100	> 100	> 100	> 100	> 100	> 100	> 100	–	–	–	–	–	–	–	–	–	–
C=CC(C)(C)/C=C/c1ccc(O)cc1	> 100	> 100	> 100	> 100	> 100	> 100	> 100	> 100	–	> 100	–	–	–	–	–	–	–	–	–	–
C/C(=C\Cc1ccc(F)cc1)CCCCCC/C(C)=C/Cc1ccc(F)cc1	42.6	33.3	75.9	53.8	24	79	31.7	37.2	28.5	31.9	–	–	–	–	–	–	–	–	–	–
Cc1nc2ccc(Br)cc2c(=O)n1-c1ccc(N)cc1	> 100	> 100	> 100	> 100	–	> 100	> 100	> 100	> 100	> 100	–	–	–	–	–	–	–	–	–	–
COC(=O)[C@@H](NS(=O)(=O)CC12CCC(CC1)C2(C)C)C(C)(C)C	> 100	> 100	> 100	> 100	> 100	> 100	> 100	> 100	> 100	> 100	–	–	–	–	–	–	–	–	–	–
COC(=O)C1C(=O)CC(C)(O)C(C(=O)OC)C1c1ccc(N(C)C)cc1 (stereo not given)	> 100	> 100	> 100	> 100	> 100	> 100	> 100	> 100	> 100	> 100	–	–	–	–	–	–	–	–	–	–
c1ccc2c[n+](CCCC[n+]3ccc4ccccc4c3)ccc2c1	> 100	> 100	> 100	> 100	> 100	> 100	> 100	> 100	> 100	> 100	–	–	–	–	–	–	–	–	–	–
